Values quoted from earlier work as cited in patent US20150196488A1, “Topical Foam Composition” (priority 2009, published 2015).

Details: alcohol, ethyl acetate, chloroform and toluene

solubility in organic solvents: soluble
Structure (SMILES): CO[C@H]1/C=C/O[C@@]2(C)Oc3c(C)c(O)c4c(O)c(c5c(nc6cc(C)ccn65)c4c3C2=O)NC(=O)/C(C)=C\C=C\[C@H](C)[C@H](O)[C@@H](C)[C@@H](O)[C@@H](C)[C@H](OC(C)=O)[C@@H]1C [Rifaximin, (2S,16Z,18E,20S,21S,22R,23R,24R,25S,26S,27S,28E)-5,6,21,23,25-pentahydroxy-27-methoxy-2,4,11,16,20,22,24,26-octamethyl-2,7-(epoxypentadeca-[1,11,13]trienimino)benzofuro[4,5-e]pyrido[1,2-a]-benzimida-zole-1,15(2H)-dione,25-acetate]
